ChEMBL document CHEMBL5291721, “A preclinical secondary pharmacology resource illuminates target-adverse drug reaction associations of marketed drugs” (Nat Commun, 2023)

Key:
B2 bradykinin receptor = target: T1, B2 bradykinin receptor (Homo sapiens, UniProt P30411)
T1 sequence (P30411 whole entry): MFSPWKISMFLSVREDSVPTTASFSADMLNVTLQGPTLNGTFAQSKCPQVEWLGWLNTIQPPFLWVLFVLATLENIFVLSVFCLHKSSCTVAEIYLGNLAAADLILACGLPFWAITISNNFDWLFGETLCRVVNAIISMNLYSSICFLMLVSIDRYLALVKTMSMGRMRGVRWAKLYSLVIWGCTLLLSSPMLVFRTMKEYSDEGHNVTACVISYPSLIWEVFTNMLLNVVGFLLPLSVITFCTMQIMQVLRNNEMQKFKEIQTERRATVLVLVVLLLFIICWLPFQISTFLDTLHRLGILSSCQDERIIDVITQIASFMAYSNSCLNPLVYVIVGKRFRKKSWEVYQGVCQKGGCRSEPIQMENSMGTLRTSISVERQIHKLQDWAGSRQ

[1] = target: T2, Muscarinic acetylcholine receptor M2 (Homo sapiens, UniProt P08172)
T2 sequence (P08172 whole entry): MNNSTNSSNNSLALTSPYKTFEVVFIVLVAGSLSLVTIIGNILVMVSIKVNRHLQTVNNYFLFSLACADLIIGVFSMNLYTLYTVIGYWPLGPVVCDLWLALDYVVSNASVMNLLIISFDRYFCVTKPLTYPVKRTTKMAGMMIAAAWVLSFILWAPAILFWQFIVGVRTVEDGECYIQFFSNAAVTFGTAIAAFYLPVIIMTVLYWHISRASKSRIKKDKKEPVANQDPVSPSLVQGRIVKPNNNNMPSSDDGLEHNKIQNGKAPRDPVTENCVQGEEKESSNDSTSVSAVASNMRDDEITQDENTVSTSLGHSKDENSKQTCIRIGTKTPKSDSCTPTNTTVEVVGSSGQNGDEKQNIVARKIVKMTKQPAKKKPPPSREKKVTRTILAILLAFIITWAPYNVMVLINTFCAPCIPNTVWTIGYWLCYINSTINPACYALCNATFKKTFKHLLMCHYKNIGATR

Progesterone receptor = target: T3, Progesterone receptor (Homo sapiens, UniProt P06401)
T3 sequence (P06401 whole entry): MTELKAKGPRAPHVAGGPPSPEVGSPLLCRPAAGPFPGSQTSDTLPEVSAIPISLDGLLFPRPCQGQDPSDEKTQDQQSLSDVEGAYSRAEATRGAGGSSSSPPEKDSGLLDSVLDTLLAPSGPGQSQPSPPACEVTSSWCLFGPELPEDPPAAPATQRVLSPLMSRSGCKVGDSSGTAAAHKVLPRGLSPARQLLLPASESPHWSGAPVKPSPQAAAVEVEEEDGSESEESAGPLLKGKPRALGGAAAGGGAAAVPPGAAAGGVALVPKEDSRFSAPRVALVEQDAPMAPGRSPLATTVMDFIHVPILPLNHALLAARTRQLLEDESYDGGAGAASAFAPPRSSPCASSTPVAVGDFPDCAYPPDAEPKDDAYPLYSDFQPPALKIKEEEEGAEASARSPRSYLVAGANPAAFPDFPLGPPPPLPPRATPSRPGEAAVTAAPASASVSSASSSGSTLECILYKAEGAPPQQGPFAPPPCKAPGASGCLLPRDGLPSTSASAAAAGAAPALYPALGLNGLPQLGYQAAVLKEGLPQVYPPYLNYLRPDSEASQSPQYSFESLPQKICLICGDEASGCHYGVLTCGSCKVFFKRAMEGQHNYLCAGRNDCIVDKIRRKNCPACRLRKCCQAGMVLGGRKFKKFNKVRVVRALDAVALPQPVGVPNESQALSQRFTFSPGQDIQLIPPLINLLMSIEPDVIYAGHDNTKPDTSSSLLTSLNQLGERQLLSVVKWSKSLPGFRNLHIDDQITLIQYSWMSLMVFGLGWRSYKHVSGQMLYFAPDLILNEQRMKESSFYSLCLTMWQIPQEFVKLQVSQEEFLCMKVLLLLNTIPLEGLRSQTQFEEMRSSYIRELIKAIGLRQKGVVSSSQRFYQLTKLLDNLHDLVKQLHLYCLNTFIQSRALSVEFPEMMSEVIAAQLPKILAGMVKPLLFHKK

[2] = target: T4, 5-hydroxytryptamine receptor 1A (Homo sapiens, UniProt P08908)
T4 sequence (P08908 whole entry): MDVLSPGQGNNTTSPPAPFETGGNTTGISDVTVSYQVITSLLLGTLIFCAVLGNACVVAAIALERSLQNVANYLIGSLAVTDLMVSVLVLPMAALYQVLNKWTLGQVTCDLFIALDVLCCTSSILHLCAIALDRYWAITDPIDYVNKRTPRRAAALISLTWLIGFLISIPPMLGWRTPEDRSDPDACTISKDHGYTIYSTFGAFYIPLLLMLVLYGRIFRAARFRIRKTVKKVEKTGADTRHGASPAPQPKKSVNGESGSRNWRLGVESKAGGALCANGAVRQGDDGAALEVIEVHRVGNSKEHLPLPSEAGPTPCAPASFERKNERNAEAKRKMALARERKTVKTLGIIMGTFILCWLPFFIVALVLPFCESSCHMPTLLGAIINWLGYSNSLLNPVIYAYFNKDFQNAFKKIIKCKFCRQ

[3] = target: Sodium-dependent noradrenaline transporter (Homo sapiens, UniProt P23975)
[4] = target: T5, Alpha-2A adrenergic receptor (Homo sapiens, UniProt P08913)
T5 sequence (P08913 whole entry): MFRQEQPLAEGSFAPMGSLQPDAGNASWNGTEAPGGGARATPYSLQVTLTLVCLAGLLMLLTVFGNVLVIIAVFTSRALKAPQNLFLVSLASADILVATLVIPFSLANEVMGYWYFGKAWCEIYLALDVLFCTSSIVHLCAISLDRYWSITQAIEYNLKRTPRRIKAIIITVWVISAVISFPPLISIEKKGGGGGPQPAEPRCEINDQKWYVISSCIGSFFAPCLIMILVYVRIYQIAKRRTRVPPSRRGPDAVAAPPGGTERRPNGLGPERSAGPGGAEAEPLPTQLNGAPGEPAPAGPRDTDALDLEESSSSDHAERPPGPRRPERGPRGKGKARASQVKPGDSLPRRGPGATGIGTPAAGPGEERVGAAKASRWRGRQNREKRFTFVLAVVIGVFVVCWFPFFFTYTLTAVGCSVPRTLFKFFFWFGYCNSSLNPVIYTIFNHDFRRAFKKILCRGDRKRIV

[5] = target: Sodium-dependent dopamine transporter (Homo sapiens, UniProt Q01959)
[6] = target: Prostaglandin G/H synthase 1 (Homo sapiens, UniProt P23219); format: functional
Further: assay procedure not described here.

Sodium-dependent noradrenaline transporter, sequence (P23975 whole entry): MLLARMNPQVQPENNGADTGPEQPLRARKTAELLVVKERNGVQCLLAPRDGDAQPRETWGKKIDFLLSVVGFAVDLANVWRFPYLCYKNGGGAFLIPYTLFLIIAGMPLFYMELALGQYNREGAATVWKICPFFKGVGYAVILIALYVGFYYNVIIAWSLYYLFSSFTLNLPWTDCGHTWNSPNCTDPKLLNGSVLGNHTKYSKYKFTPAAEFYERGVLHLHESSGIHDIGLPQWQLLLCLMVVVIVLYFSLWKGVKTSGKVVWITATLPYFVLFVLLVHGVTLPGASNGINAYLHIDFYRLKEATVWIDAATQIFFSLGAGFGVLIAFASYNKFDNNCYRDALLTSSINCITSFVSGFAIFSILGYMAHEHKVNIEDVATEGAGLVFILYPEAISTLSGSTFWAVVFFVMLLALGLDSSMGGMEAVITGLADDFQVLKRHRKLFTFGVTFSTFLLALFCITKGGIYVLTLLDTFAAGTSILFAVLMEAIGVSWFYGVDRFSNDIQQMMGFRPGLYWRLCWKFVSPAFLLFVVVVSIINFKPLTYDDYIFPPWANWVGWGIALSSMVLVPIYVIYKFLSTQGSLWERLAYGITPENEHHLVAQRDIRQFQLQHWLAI
Prostaglandin G/H synthase 1, sequence (P23219 whole entry): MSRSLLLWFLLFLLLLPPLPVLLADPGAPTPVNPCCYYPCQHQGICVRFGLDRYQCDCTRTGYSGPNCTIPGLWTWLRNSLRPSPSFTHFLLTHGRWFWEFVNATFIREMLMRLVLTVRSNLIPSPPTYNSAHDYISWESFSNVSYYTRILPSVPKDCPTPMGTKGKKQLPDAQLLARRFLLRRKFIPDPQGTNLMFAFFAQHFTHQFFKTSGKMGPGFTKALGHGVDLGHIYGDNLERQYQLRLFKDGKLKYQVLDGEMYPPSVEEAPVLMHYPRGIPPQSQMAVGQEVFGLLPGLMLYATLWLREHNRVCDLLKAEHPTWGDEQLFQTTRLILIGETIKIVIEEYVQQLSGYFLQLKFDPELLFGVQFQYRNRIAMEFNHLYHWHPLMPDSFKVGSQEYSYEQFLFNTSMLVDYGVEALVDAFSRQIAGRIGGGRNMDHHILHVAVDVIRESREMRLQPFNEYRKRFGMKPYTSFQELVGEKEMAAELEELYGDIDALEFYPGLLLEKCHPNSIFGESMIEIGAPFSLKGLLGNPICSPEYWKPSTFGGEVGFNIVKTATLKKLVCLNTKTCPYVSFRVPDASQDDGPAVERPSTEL
Sodium-dependent dopamine transporter, sequence (Q01959 whole entry): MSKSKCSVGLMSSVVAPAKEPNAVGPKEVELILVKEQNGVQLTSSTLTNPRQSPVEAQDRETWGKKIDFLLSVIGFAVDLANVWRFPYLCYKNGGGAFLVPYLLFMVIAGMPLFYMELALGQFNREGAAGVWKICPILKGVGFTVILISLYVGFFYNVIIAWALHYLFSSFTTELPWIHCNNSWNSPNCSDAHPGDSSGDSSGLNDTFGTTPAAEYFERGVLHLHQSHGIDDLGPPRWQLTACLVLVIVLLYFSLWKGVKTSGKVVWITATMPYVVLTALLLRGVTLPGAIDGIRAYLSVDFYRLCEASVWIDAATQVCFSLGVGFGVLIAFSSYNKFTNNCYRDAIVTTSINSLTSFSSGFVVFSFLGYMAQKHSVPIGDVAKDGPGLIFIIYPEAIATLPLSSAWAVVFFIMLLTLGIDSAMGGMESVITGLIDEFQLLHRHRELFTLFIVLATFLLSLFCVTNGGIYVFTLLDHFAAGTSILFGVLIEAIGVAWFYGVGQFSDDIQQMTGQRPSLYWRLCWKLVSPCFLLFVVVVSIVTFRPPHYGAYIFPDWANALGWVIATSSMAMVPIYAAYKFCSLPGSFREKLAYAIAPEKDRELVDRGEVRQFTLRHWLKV

Compound: CC(C)/N=c1\cc2n(-c3ccc(Cl)cc3)c3ccccc3nc-2cc1Nc1ccc(Cl)cc1 [CLOFAZIMINE]
- AC50 (B2 bradykinin receptor): > 30 µM

Compound: CCCCCCCCCCCCCCCC(=O)OC[C@H](COP(=O)([O-])OCC[N+](C)(C)C)OC(=O)CCCCCCCCCCCCCCC [COLFOSCERIL PALMITATE]
- AC50 [1]: > 30 µM
- AC50 (Progesterone receptor): > 30 µM
- AC50 [2]: > 30 µM
- AC50 [3]: > 30 µM
- AC50 [4]: > 30 µM
- AC50 [5]: > 30 µM
- AC50 [6]: > 30 µM

Compound: COc1cccc2c1C(=O)c1c(O)c3c(c(O)c1C2=O)C[C@@](O)(C(=O)CO)C[C@@H]3O[C@H]1C[C@H](N)[C@H](O[C@@H]2CCCCO2)[C@H](C)O1 [PIRARUBICIN]
- AC50 [1]: > 30 µM
- AC50 (Progesterone receptor): > 30 µM
- AC50 [2]: > 30 µM
- AC50 [3]: > 30 µM
- AC50 [4]: > 30 µM
- AC50 [5]: > 30 µM
- AC50 [6]: 1.57 µM

Compound: O=C(c1ccccc1)c1ccc2n1CCC2C(=O)O (centres undefined) [KETOROLAC]
- AC50 (B2 bradykinin receptor): > 10 µM

Compound: CCOC(=O)Nc1ccc(NCc2ccc(F)cc2)nc1N [FLUPIRTINE]
- AC50 (B2 bradykinin receptor): > 30 µM

Compound: CCOc1ccccc1OCCN[C@H](C)Cc1ccc(OC)c(S(N)(=O)=O)c1 [TAMSULOSIN]
- AC50 (B2 bradykinin receptor): > 30 µM

Compound: CCN(CCO)CCCC(C)Nc1ccnc2cc(Cl)ccc12 (centres undefined) [HYDROXYCHLOROQUINE]
- AC50 (B2 bradykinin receptor): > 10 µM

Compound: CC(C)C[C@H](NC(=O)[C@H](Cc1ccccc1)NC(=O)c1cnccn1)B(O)O [BORTEZOMIB]
- AC50 (B2 bradykinin receptor): > 30 µM

Compound: C#CCN(C)Cc1ccccc1 [PARGYLINE]
- AC50 [1]: > 30 µM
- AC50 (Progesterone receptor): > 30 µM
- AC50 [2]: > 30 µM
- AC50 [3]: > 30 µM
- AC50 [4]: > 30 µM
- AC50 [5]: > 30 µM
- AC50 [6]: > 30 µM

Compound: N[C@@H](Cc1cc(I)c(Oc2cc(I)c(O)c(I)c2)c(I)c1)C(=O)O [LEVOTHYROXINE]
- AC50 (B2 bradykinin receptor): > 10 µM

Compound: CC[N+](CC)(CCNC(=O)C(=O)NCC[N+](CC)(CC)Cc1ccccc1Cl)Cc1ccccc1Cl [AMBENONIUM]
- AC50 (B2 bradykinin receptor): > 30 µM

Compound: C[C@]12CCC(=O)C=C1CC[C@H]1[C@@H]3CC[C@](O)(C(=O)CO)[C@@]3(C)C[C@H](O)[C@@]12F [FLUDROCORTISONE]
- AC50 (B2 bradykinin receptor): > 30 µM

Compound: C[C@H](CS)C(=O)N1CCC[C@H]1C(=O)O [CAPTOPRIL]
- AC50 (B2 bradykinin receptor): > 30 µM

Compound: C=CC1=C(C(=O)O)N2C(=O)[C@@H](NC(=O)/C(=N\O)c3csc(N)n3)[C@H]2SC1
- AC50 (B2 bradykinin receptor): > 30 µM

Compound: CO[C@@]1(NC(=O)C(C(=O)O)c2ccc(O)cc2)C(=O)N2C(C(=O)O)=C(CSc3nnnn3C)CO[C@@H]21 (some centres undefined) [MOXALACTAM]
- AC50 [1]: > 30 µM
- AC50 (Progesterone receptor): > 30 µM
- AC50 [2]: > 30 µM
- AC50 [3]: > 30 µM
- AC50 [4]: > 30 µM
- AC50 [5]: > 30 µM
- AC50 [6]: > 30 µM

Compound: CN(C)CCOC(c1ccc(Cl)cc1)c1ccccn1 (centres undefined) [CARBINOXAMINE]
- AC50 (B2 bradykinin receptor): > 30 µM

Compound: NCCCNCCSP(=O)(O)O [AMIFOSTINE]
- AC50 (B2 bradykinin receptor): > 30 µM

Compound: O=c1[nH]cc(F)c(=O)[nH]1 [FLUOROURACIL]
- AC50 [1]: > 30 µM
- AC50 (Progesterone receptor): > 30 µM
- AC50 [2]: > 30 µM
- AC50 [3]: > 30 µM
- AC50 [4]: > 30 µM
- AC50 [5]: > 30 µM
- AC50 (B2 bradykinin receptor): > 30 µM
- AC50 [6]: > 30 µM
